Assay results as given in patent US10017534B2, “Method for producing Tebbe complex” (KURARAY CO., LTD., priority 2014, dated 2018).

Test: Measurement of solubility of Tebbe complex in a solvent (atomic absorption analysis of filtrate)
Settings: for Solubility of Tebbe complex / Titanium atom contained in filtrate: 25° C.
Method: The measurement of the solubility of the Tebbe complex in a solvent was performed in the following manner. That is, 4 mL of a solvent of every kind was added to 1 g of a Tebbe complex obtained in the following Preparation Example 1; a solution after stirring at 25° C. for one hour was filtered with a membrane filter of 0.2 μm; the filtrate was subjected to atomic absorption analysis using the aforementioned polarized Zeeman atomic absorption spectrophotometer; and a titanium atom concentration was measured.
The measurement of the solubility of the Tebbe complex in a solvent was performed in the following manner. That is, 4 mL of a solvent of every kind was added to 1 g of the Tebbe complex obtained in Preparation Example 1; a solution after stirring at 25° C. for one hour was filtered with a membrane filter of 0.2 μm; and the filtrate was subjected to atomic absorption analysis using the aforementioned polarized Zeeman atomic absorption spectrophotometer, thereby measuring a titanium atom concentration.
Using a glove box, 1.0 g of the brownish-red crystal b1 of the Tebbe complex obtained in the method of Preparation Example 1 was weighed in a 20-mL eggplant type flask in an argon atmosphere, and a rotator and 4 mL of dehydrated hexane were added, followed by stirring at 25° C. for one hour. Thereafter, the resultant was allowed to stand and then filtered with a membrane filter of 0.2 μm, and 1.0 g of a filtrate containing the Tebbe complex was subjected to atomic absorption analysis, thereby measuring the solubility of the Tebbe complex.

μ-chloro-μ-methylene-bis(η^5-cyclopentadienyl)titanium dimethylaluminum [Tebbe complex]
Solubility of Tebbe complex (1,4-dioxane): 1.43 mmol/g
Titanium atom contained in filtrate (1,4-dioxane): 6.84 % by mass
Solubility of Tebbe complex (2-hexene): 0.27 mmol/g
Titanium atom contained in filtrate (2-hexene): 1.29 % by mass
Solubility of Tebbe complex (2-methylpentane): 0.21 mmol/g
Titanium atom contained in filtrate (2-methylpentane): 1.01 % by mass
solubility of the Tebbe complex in 1 g of the solvent (aliphatic hydrocarbons of Test Examples 1 to 6, 25° C.): ≤ 0.5 mmol/g
solubility of the Tebbe complex in 1 g of the solvent (aromatic hydrocarbons and ether compounds of Comparative Test Examples 1 to 8, 25° C.): more than 0.5 mmol/g
Solubility of Tebbe complex (benzene): 1.18 mmol/g
Titanium atom contained in filtrate (benzene): 5.65 % by mass
Solubility of Tebbe complex (cyclohexane): 0.45 mmol/g
Titanium atom contained in filtrate (cyclohexane): 2.15 % by mass
Solubility of Tebbe complex (cyclopentyl methyl ether): 1.29 mmol/g
Titanium atom contained in filtrate (cyclopentyl methyl ether): 6.17 % by mass
Solubility of Tebbe complex (diisopropyl ether): 0.60 mmol/g
Titanium atom contained in filtrate (diisopropyl ether): 2.87 % by mass
Solubility of Tebbe complex (dodecane): 0.12 mmol/g
Titanium atom contained in filtrate (dodecane): 0.57 % by mass
Solubility of Tebbe complex (heptane): 0.21 mmol/g
Titanium atom contained in filtrate (heptane): 1.01 % by mass
Solubility of Tebbe complex (hexane): 0.22 mmol/g
Titanium atom contained in filtrate (hexane): 1.05 % by mass
Solubility of Tebbe complex (methylene chloride): 1.49 mmol/g
Titanium atom contained in filtrate (methylene chloride): 7.13 % by mass
Solubility of Tebbe complex (p-xylene): 0.94 mmol/g
Titanium atom contained in filtrate (p-xylene): 4.50 % by mass
Solubility of Tebbe complex (tetrahydrofuran): 1.71 mmol/g
Titanium atom contained in filtrate (tetrahydrofuran): 8.19 % by mass
Solubility of Tebbe complex (toluene): 0.93 mmol/g
Titanium atom contained in filtrate (toluene): 4.45 % by mass
